target: T1, human Edg-1 (S1P1) (Homo sapiens, UniProt P21453); assay: S1P1 binding assay: inhibition of [33P]-S1P binding to membrane fraction of HEK-293 cells transferred with the human Edg-1 (S1P1) gene; conditions: [33P]-S1P 0.1 nM, human Edg-1 (S1P1) HEK-293 membrane fraction, 1 h at 30° C.; read-out: IC50 (concentration at which binding in the absence of the test compound was inhibited by 50%)
T1 construct: expressed in transfected cells; host or cells: HEK-293
How it was run: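 Membranes from S1P1-transfected HEK-293 cells incubated 1 h at 30° C in pH 7.4 Tris buffer with fatty acid-free BSA, 0.1 nM [33P]-S1P and test compound (0.1% DMSO). Filter-bound radioactivity was counted; inhibition corrected for binding to untransfected-cell membranes, and IC50 derived from concentration series.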

T1 sequence (P21453 whole entry): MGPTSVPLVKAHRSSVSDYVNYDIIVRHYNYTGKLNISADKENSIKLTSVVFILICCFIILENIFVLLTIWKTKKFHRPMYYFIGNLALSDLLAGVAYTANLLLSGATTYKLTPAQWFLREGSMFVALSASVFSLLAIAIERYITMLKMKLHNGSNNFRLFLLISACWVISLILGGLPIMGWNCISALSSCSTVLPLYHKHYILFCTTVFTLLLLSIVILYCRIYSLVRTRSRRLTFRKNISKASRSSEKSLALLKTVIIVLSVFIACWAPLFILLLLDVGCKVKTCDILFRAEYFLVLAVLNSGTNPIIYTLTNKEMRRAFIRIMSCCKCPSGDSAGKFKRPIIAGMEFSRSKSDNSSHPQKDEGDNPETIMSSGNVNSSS

Row | IC50 [nM] | SMILES
1 | 5.4 | CCn1c(Oc2cccc(N3CCC(=O)CC3)c2)nnc1[C@@H](C)NS(=O)(=O)c1ccc(Cl)c(Cl)c1 [Compound 88, 3,4-Dichloro-N-((R)-1-[4-ethyl-5-[3-(4-oxo-piperidin-1-yl)-phenoxy]-4H-[1,2,4]triazol-3-yl]-ethyl)-benzenesulfonamide]

same assay, conditions: test compound 10 μM; inhibition of [33P]-S1P binding, membrane fraction

Row | inhibition at 10 µM [%] | SMILES
2 | 92.6 | CCn1c(Oc2cccc(N3CCN(C)CC3)c2)nnc1[C@@H](C)NS(=O)(=O)c1ccc2c(c1)C(C)(C)CCC2(C)C [Compound 676]
3 | 91.2 | CCn1c(Oc2cccc(N3CCN(C)CC3)c2)nnc1[C@@H](C)NS(=O)(=O)c1ccc(C(F)(F)F)cc1Br [Compound 610]
4 | 79.3 | CCn1c(Oc2cccc(N3CCN(C)CC3)c2)nnc1[C@@H](C)NS(=O)(=O)c1cc(Br)ccc1OC [Compound 559]
5 | 92.5 | CCn1c(Oc2ccc3cc[nH]c3c2)nnc1[C@@H](C)NS(=O)(=O)c1ccc(Br)cc1F [Compound 414]
6 | 112 | CCn1c(Oc2cccc(N3CCN(C)CC3)c2)nnc1[C@@H](C)NS(=O)(=O)c1ccc(C(=O)OC)n1C [Compound 543]
7 | 114 | CCn1c(Oc2cccc(N3CCN(C)CC3)c2)nnc1[C@@H](C)NS(=O)(=O)c1cc(C)c(Cl)cc1C [Compound 510]
8 | 93.7 | CCn1c(Oc2cccc(N3CCN(C)CC3)c2)nnc1[C@@H](C)NS(=O)(=O)c1c(C)cc(Cl)cc1Cl [Compound 595]
9 | 101 | CCn1c(Oc2cccc(N3CCN(C)CC3)c2)nnc1[C@@H](C)NS(=O)(=O)c1cccc(C)c1 [Compound 534]
10 | 97.3 | CCn1c(Oc2cccc(N3CCN(C)CC3)c2)nnc1[C@@H](C)NS(=O)(=O)c1cc(Br)ccc1Br [Compound 597]
11 | 95.3 | CCn1c(Oc2ccc3cc[nH]c3c2)nnc1[C@@H](C)NS(=O)(=O)c1ccc(F)c(F)c1 [Compound 413]
12 | 83.1 | CCn1c(Oc2ccc3cc[nH]c3c2)nnc1[C@@H](C)NS(=O)(=O)c1cc2ccccc2s1 [Compound 493]
13 | 59.5 | CCn1c(Oc2cccc(N3CCN(C)CC3)c2)nnc1[C@@H](C)NS(=O)(=O)c1ccc(-c2ccnc(SC)n2)s1 [Compound 640]
14 | 59.9 | CCn1c(Oc2ccc3cc[nH]c3c2)nnc1[C@@H](C)NS(=O)(=O)c1ccc(-c2cnco2)s1 [Compound 467]
15 | 95.4 | CCn1c(Oc2cccc(N3CCN(C)CC3)c2)nnc1[C@@H](C)NS(=O)(=O)c1csc2ccccc12 [Compound 662]
16 | 50.1 | CCn1c(Oc2cccc(N3CCN(C)CC3)c2)nnc1[C@@H](C)NS(=O)(=O)c1c(Cl)ccc2nonc12 [Compound 542]
17 | 108 | CCn1c(Oc2cccc(N3CCN(C)CC3)c2)nnc1[C@@H](C)NS(=O)(=O)c1cc(F)cc(F)c1 [Compound 606]
18 | 50.6 | CCn1c(Oc2cccc(N3CCN(C)CC3)c2)nnc1[C@@H](C)NS(=O)(=O)c1cnn(-c2ccccc2)c1C [Compound 637]

Row | inhibition at 10 µM [%] | SMILES
19 | 62 | CCn1c(Oc2cccc(N3CCN(C)CC3)c2)nnc1[C@@H](C)NS(=O)(=O)c1ccc2c(c1)CCC(C)(C)O2 [Compound 673]
20 | 99.2 | CCn1c(Oc2cccc(N3CCN(C)CC3)c2)nnc1[C@@H](C)NS(=O)(=O)c1ccc(OC(F)(F)F)cc1 [Compound 532]
21 | 94.6 | CCn1c(Oc2ccc3cc[nH]c3c2)nnc1[C@@H](C)NS(=O)(=O)c1cccc(OC(F)F)c1 [Compound 435]
22 | 83.4 | CCn1c(Oc2cccc(N3CCN(C)CC3)c2)nnc1[C@@H](C)NS(=O)(=O)c1c(F)cc(F)cc1Br [Compound 605]
23 | 80.6 | CCn1c(Oc2cccc(N3CCN(C)CC3)c2)nnc1[C@@H](C)NS(=O)(=O)Cc1cccc(Cl)c1 [Compound 599]
24 | 96.7 | CCn1c(Oc2cccc(N3CCN(C)CC3)c2)nnc1[C@@H](C)NS(=O)(=O)c1cc(C)ccc1C [Compound 537]
25 | 112 | CCn1c(Oc2cccc(N3CCN(C)CC3)c2)nnc1[C@@H](C)NS(=O)(=O)c1cc(Cl)c(Cl)cc1Cl [Compound 526]
26 | 93.8 | CCn1c(Oc2ccc3cc[nH]c3c2)nnc1[C@@H](C)NS(=O)(=O)c1cc(C)cc(C)c1 [Compound 433]
27 | 99 | CCn1c(Oc2cccc(N3CCN(C)CC3)c2)nnc1[C@@H](C)NS(=O)(=O)c1cccc(C(C)=O)c1 [Compound 647]
28 | 98.6 | CCn1c(Oc2cccc(N3CCN(C)CC3)c2)nnc1[C@@H](C)NS(=O)(=O)c1ccc2cc(C)ccc2c1 [Compound 668]
29 | 102 | CCn1c(Oc2cccc(N3CCN(C)CC3)c2)nnc1[C@@H](C)NS(=O)(=O)c1ccc(Cl)cc1Cl [Compound 567]
30 | 96.6 | CCn1c(Oc2cccc(N3CCN(C)CC3)c2)nnc1[C@@H](C)NS(=O)(=O)c1ccc(OC)c(OC)c1 [Compound 513]
31 | 81.1 | CCn1c(Oc2ccc3cc[nH]c3c2)nnc1[C@@H](C)NS(=O)(=O)c1ccc(Br)cc1Cl [Compound 448]
32 | 68.7 | CCn1c(Oc2cccc(N3CCN(C)CC3)c2)nnc1[C@@H](C)NS(=O)(=O)c1ccsc1 [Compound 635]
33 | 65.9 | CCn1c(Oc2cccc(N3CCN(C)CC3)c2)nnc1[C@@H](C)NS(=O)(=O)c1ccc(NC(C)=O)c(Cl)c1 [Compound 593]
34 | 61.7 | CCn1c(Oc2cccc(N3CCN(C)CC3)c2)nnc1[C@@H](C)NS(=O)(=O)c1ccccc1Br [Compound 501]

same assay, conditions: test compound at 10 μM; inhibition of [33P]-S1P binding to the membrane fraction of HEK-293 cells expressing human Edg-1 (S1P1)

Row | inhibition at 10 µM [%] | SMILES
35 | 59.8 | CCn1c(Oc2ccc3cc[nH]c3c2)nnc1[C@@H](C)NS(=O)(=O)c1ccccc1Br [Compound 331]
36 | 99.9 | CCn1c(Oc2ccc(F)cc2)nnc1[C@@H](C)NS(=O)(=O)c1cc(F)c(F)c(F)c1 [Compound 268]
37 | 89.3 | CCn1c(Oc2ccc(F)cc2)nnc1[C@@H](C)NS(=O)(=O)c1cc(Cl)c(F)cc1F [Compound 245]
38 | 97.2 | CCn1c(Oc2ccc(F)cc2)nnc1[C@@H](C)NS(=O)(=O)c1ccc(F)cc1 [Compound 173]
39 | 99 | CCn1c(Oc2ccc(F)cc2)nnc1[C@@H](C)NS(=O)(=O)c1cc(F)cc(F)c1 [Compound 266]
40 | 99.5 | CCn1c(Oc2cccc(N3CCC(=O)CC3)c2)nnc1[C@@H](C)NS(=O)(=O)c1ccc(Cl)c(Cl)c1 [Compound 88, 3,4-Dichloro-N-((R)-1-[4-ethyl-5-[3-(4-oxo-piperidin-1-yl)-phenoxy]-4H-[1,2,4]triazol-3-yl]-ethyl)-benzenesulfonamide]
41 | 107 | CCn1c(Oc2ccc(F)cc2)nnc1[C@@H](C)NS(=O)(=O)c1ccc(Br)c(F)c1 [Compound 275]
42 | 106 | CCn1c(Oc2ccc3cc[nH]c3c2)nnc1[C@@H](C)NS(=O)(=O)c1cc(Cl)c(Cl)cc1Cl [Compound 357]
43 | 59.1 | CCn1c(Oc2ccc(F)cc2)nnc1[C@@H](C)NS(=O)(=O)c1c(F)cc(F)cc1Br [Compound 265]
44 | 98.8 | CCn1c(Oc2ccc3cc[nH]c3c2)nnc1[C@@H](C)NS(=O)(=O)c1ccc(I)cc1 [Compound 355]
45 | 92.8 | CCn1c(Oc2ccc(F)cc2)nnc1[C@@H](C)NS(=O)(=O)/C=C/c1ccccc1 [Compound 183]
46 | 102 | CCn1c(Oc2ccc3cc[nH]c3c2)nnc1[C@@H](C)NS(=O)(=O)c1cccc(Br)c1 [Compound 333]
47 | 88.1 | CCn1c(Oc2ccc3cc[nH]c3c2)nnc1[C@@H](C)NS(=O)(=O)c1cccc(Cl)c1C [Compound 384]
48 | 64.8 | CCn1c(Oc2ccc(F)cc2)nnc1[C@@H](C)NS(=O)(=O)c1ccc(F)c(F)c1F [Compound 237]
49 | 86.5 | CCn1c(Oc2ccc3cc[nH]c3c2)nnc1[C@@H](C)NS(=O)(=O)c1ccc(OC)c(OC)c1 [Compound 343]

— patent publication US8022091B2, “Triazole derivative” (Taisho Pharmaceutical Co., Ltd., priority 2006, dated 2011)
